Test results published in the METLIN SMRT retention time set (Domingo-Almenara et al. 2019).

Assay: gradient 5% acetonitrile 3 min, to 50% in 2 min, to 85% in 15 min, held 3 min, 100 µL/min
Settings: column: Zorbax Extend-C18 2.1 x 50 mm; eluents: water / acetonitrile, 0.1% formic acid
Summary of the method: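 Retention times of pure standards were taken from adduct peaks that were selected by computer and manually inspected. Over 3 months, mixtures of ~100 molecules were run by HPLC–quadrupole time-of-flight mass spectrometry in positive and negative ionization mode. The Zorbax Extend-C18 column (2.1 × 50 mm, 1.8 μm) ran at 100 μL/min in water and acetonitrile, each containing 0.1% formic acid, with 40 μL dead volume and 900 μL dwell volume.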
`CC(C)CNC(=O)N1CCCCC1c1nncn1-c1ccccc1` (centres undefined) showed an RP-LC retention time of 683 s.
For `CSc1nc2c(c(=O)n1-c1ccc([N+](=O)[O-])cc1)SCC2`, the RP-LC retention time was 816 s.
Work on `Cn1nc(-c2nnc(-c3ccc(F)cc3)o2)c2c1CCN(C(=O)Nc1ccc(Cl)cc1)C2` yielded an RP-LC retention time of 936 s.
With `O=C(O)C1CC(=O)N(c2ccc3c(c2)OCO3)C1` (centres undefined) the RP-LC retention time was 619 s.
With `CCn1ccc2cc(S(=O)(=O)N3CCC(C(=O)NC(C)Cc4ccco4)CC3)ccc21` (centres undefined) the RP-LC retention time was 905 s.
Compound `Cc1ccc(S(=O)(=O)N2CC[C@H](c3n[nH]c(C)n3)[C@H](N(C)C)C2)c(C)c1` has an RP-LC retention time of 623 s.
Work on `CC(C)Cc1ccc(S(=O)(=O)N(CCN2CCCCC2C)CC(=O)N2CCNCC2)cc1` (centres undefined) yielded an RP-LC retention time of 621 s.
`O=C(Nc1ccc2c(c1)OCCO2)N1CC[C@@H]2COC(=O)N(Cc3ccccc3)[C@@H]2C1` showed an RP-LC retention time of 724 s.
`CS(=O)(=O)Nc1ccc(C2(C(=O)NC3CCCC3)CCCCC2)cc1` showed an RP-LC retention time of 634 s.
`CC(C)NC(=O)c1ccc(-c2nc3cc(NS(=O)(=O)c4ccc(F)c(F)c4)ccc3n2C)cc1` showed an RP-LC retention time of 721 s.
Compound `CCn1cnc(S(=O)(=O)N2CCC(C(=O)Nc3cccc4c3CCCC4)CC2)c1` has an RP-LC retention time of 792 s.
For `Cc1csc(-c2ccc(N3CCN(C(=O)c4cccc(C#N)c4)CC3)nc2)n1`, the RP-LC retention time was 771 s.
`Cc1nn(-c2nc(-c3ccc(F)cc3)cs2)c(C)c1CC(=O)Nc1cccc(Cl)c1` showed an RP-LC retention time of 772 s.
Work on `CCOc1ccc(NS(=O)(=O)c2ccc(-c3nnc(C4CCC4)o3)o2)cc1` yielded an RP-LC retention time of 922 s.
Work on `COc1ccc(C(=O)Nc2nnc(C3CC(=O)N(c4ccc(Cl)cc4)C3)o2)cc1` (centres undefined) yielded an RP-LC retention time of 773 s.
For `CC(C)CCC(=O)N1CCC2(CC1)N(C)C(=O)CS2(=O)=O`, the RP-LC retention time was 644 s.
Work on `CCCc1cc(N2CCN(C(=O)c3ccncc3)CC2)nc2nnc(CC)n12` yielded an RP-LC retention time of 580 s.
`CCN1CCC(N(Cc2cccs2)C(=O)Nc2ccc(Cl)cc2)CC1` gave an RP-LC retention time of 682 s.
For `CCN1CCN(C(=O)c2nc(-c3ccnc(N4CCCCC4)c3)no2)CC1`, the RP-LC retention time was 568 s.
Work on `CCCNC(=O)c1nc(C)n(C2CCN(S(C)(=O)=O)CC2)c1C` yielded an RP-LC retention time of 542 s.
For `OC[C@@H]1CN(C2CCSCC2)C[C@H]1c1nc(-c2cccnc2)no1`, the RP-LC retention time was 555 s.
In the case of `O=S(=O)(Cc1cccc(Cl)c1)NCCc1noc(-c2ccccc2)n1`, the RP-LC retention time is reported as 971 s.
For `CC12CC(c3ccccc3O1)C(C(=O)N1CCN(C(=O)c3ccco3)CC1)C(=O)N2` (centres undefined), the RP-LC retention time was 624 s.
In the case of `CC1CCCCN1CCNC(=O)c1nc2nc(-c3ccco3)cc(C(F)(F)F)n2n1` (centres undefined), the RP-LC retention time is reported as 628 s.
Work on `c1ccc(-c2nc3ccccn3c2Nc2ccc3c(c2)OCO3)cc1` yielded an RP-LC retention time of 677 s.
Work on `CCOc1ccc(NC(=O)N2CCC[C@@H]2C(=O)NCc2csc(-c3ccccc3)n2)cc1` yielded an RP-LC retention time of 808 s.
Work on `COc1cccc(Cn2cccc(S(=O)(=O)N3CCC(C)CC3)c2=O)c1` yielded an RP-LC retention time of 954 s.
`CCCn1cnc2ccc(-c3noc(CNS(=O)(=O)c4ccccc4)n3)cc21` showed an RP-LC retention time of 682 s.
For `CC(C)CN1C(=O)c2cccn2CC1CNC(=O)c1n[nH]c(=O)c2ccccc12` (centres undefined), the RP-LC retention time was 689 s.
`CC(C)(C)S(=O)(=O)c1ccc(N2CCN(Cc3ccccc3)CC2)nn1` gave an RP-LC retention time of 566 s.
Work on `Cn1nc(-c2nnc(-c3ccccc3)o2)c2c1CCN(S(=O)(=O)c1cc(F)ccc1F)C2` yielded an RP-LC retention time of 940 s.
For `CCCCNC(=O)C1CCN(S(C)(=O)=O)c2cc(Cl)ccc2O1` (centres undefined), the RP-LC retention time was 887 s.
In the case of `O=C(COc1ccc(Cl)cc1Cl)NCC(=O)N1CCOC(c2ccccc2)C1` (centres undefined), the RP-LC retention time is reported as 927 s.
For `Cn1c(SCC(=O)N2CCC(C(N)=O)CC2)nnc1-c1sc2ncccc2c1N`, the RP-LC retention time was 577 s.
`Cc1cc(C)cc(C(=O)N2CCC(c3nc4ccncc4n3C)C2)c1` (centres undefined) showed an RP-LC retention time of 547 s.
`CN1c2cc(F)ccc2C(=O)NC12CCN(C(=O)c1ccc(Cl)cc1)CC2` gave an RP-LC retention time of 785 s.
In the case of `CC(=O)Nc1cccc(-c2nc(-c3ccc4c(c3)oc(=O)n4C)no2)c1`, the RP-LC retention time is reported as 819 s.
With `CCCc1nc2cccnc2n1C1CCN(C(=O)NCc2ccccc2)C1` (centres undefined) the RP-LC retention time was 603 s.
In the case of `COc1ccc(/C=C/c2nn3c(COc4ccc(OC)cc4)nnc3s2)cc1`, the RP-LC retention time is reported as 973 s.
`COCCn1cc2c3c(cccc31)CN(C(=O)Nc1ccc(C)c(C)c1)CC2` showed an RP-LC retention time of 1020 s.
For `CS(=O)(=O)N1CCN(C(=O)CCc2csc(NC(=O)c3ccc(F)cc3)n2)CC1`, the RP-LC retention time was 666 s.
For `CC(C)CN1CCN(C(=O)CN2CCN(Cc3ccccc3)C2=O)CC1`, the RP-LC retention time was 579 s.
With `CCOC(=O)C1CCN(C(=O)NCc2cccs2)CC1` the RP-LC retention time was 677 s.
For `Cc1ccc(CN2CCCC(c3nncn3Cc3ccccc3)C2)o1` (centres undefined), the RP-LC retention time was 745 s.
In the case of `O=C(Nc1ccc(F)c(Cl)c1)c1sc2ncccc2c1-n1cccc1`, the RP-LC retention time is reported as 1170 s.
`Cc1cc(C)n(-c2ccc(C(=O)N3CCN(c4ccccc4)CC3)cn2)n1` showed an RP-LC retention time of 949 s.
In the case of `Cc1noc(CNC(=O)CN(C)c2nc3c(C)ccc(C)c3s2)n1`, the RP-LC retention time is reported as 772 s.
In the case of `Cc1ccc(-c2csc(NC(=O)CSc3nc4c(cc3C#N)CN(C(C)C)CC4)n2)cc1`, the RP-LC retention time is reported as 741 s.
For `O=C(Cn1c(=O)c2cccn2c2ccc(F)cc21)N1CCC(N2CCCCC2)CC1`, the RP-LC retention time was 606 s.
For `COc1ccc(-c2ncc3c(n2)CCN(S(=O)(=O)c2ccc(F)c(F)c2)C3)cc1`, the RP-LC retention time was 1060 s.
With `Cn1cc(-c2ccncc2)cc1C(=O)NCc1ccc(F)cc1Cl` the RP-LC retention time was 653 s.
Compound `Cc1ccc(CNC(=O)CN2C(=O)CSc3cccn3-c3ccccc32)cc1` has an RP-LC retention time of 1110 s.
`CCCNC(=O)C1CCCN(c2ccc(SCC(=O)Nc3cccc(SC)c3)nn2)C1` (centres undefined) showed an RP-LC retention time of 693 s.
`COc1ccccc1NC(=O)Cn1ncc2c(c1=O)N(CC1CC1)C(=O)CS2` gave an RP-LC retention time of 794 s.
`CCOC(=O)c1ccc(Nc2c(-c3ccc(OC)cc3)nc3cnccn23)cc1` gave an RP-LC retention time of 641 s.
`COc1ccc(N2CC(c3nc(-c4ccc(Cl)cc4)no3)CC2=O)c(OC)c1` (centres undefined) gave an RP-LC retention time of 1000 s.
With `CCSc1ccccc1C(=O)NCC1CCN(S(=O)(=O)C2CC2)CC1` the RP-LC retention time was 725 s.
`COCC(=O)N1CCCc2ccc(NC(=O)C3CC(=O)N(c4ccc(F)cc4)C3)cc21` (centres undefined) showed an RP-LC retention time of 681 s.
For `Cn1cnnc1SCCNC(=O)Cc1csc(Nc2ncccn2)n1`, the RP-LC retention time was 564 s.
`Cc1nc(-c2ccc(NC(=O)N3CCN(c4ccccn4)CC3)cc2)no1` gave an RP-LC retention time of 588 s.
With `O=C(c1cccs1)N1CCC(c2noc(-c3ccncc3)n2)C1` (centres undefined) the RP-LC retention time was 685 s.
With `CCOc1ccccc1NC(=O)C1CCN(c2cncnc2N2CCOCC2)CC1` the RP-LC retention time was 651 s.
In the case of `CCOC(=O)c1noc2nc(C)nc(NCC3CCN(Cc4ccc(F)cc4)CC3)c12`, the RP-LC retention time is reported as 666 s.
Compound `Cc1ccc(-c2ccc(N3CCCC(C(=O)N4CCN(C(C)C)CC4)C3)nn2)cc1C` (centres undefined) has an RP-LC retention time of 623 s.
For `O=C(C1=CN(c2ccc(Br)cc2)c2cc(F)ccc2S1(=O)=O)N1CCOCC1`, the RP-LC retention time was 826 s.
In the case of `Cc1cccc(Cl)c1S(=O)(=O)Nc1ccc2c(c1)CCC(=O)N2C`, the RP-LC retention time is reported as 788 s.
`O=C(C1=CN(c2ccccc2)c2cc(F)ccc2S1(=O)=O)N1CCOCC1` gave an RP-LC retention time of 754 s.
`c1ccc2c(CC3=NCCN3)cccc2c1` gave an RP-LC retention time of 619 s.
For `O=C(CN1CCOCC1)Nc1ccc(Br)cc1`, the RP-LC retention time was 556 s.
Work on `CCC(=O)N1CCc2cc(N3CC(C(=O)NC4CC4)CC3=O)ccc21` (centres undefined) yielded an RP-LC retention time of 620 s.
`CCN1C(=O)c2cccnc2Sc2cc(NC(=O)C3CCCC3)ccc21` gave an RP-LC retention time of 816 s.
`COCc1cc(=O)n(CC(=O)Nc2ccc(F)cc2C)c(N)n1` showed an RP-LC retention time of 593 s.
For `Cc1nc2c(NC(=O)NCc3ccccc3)cccn2n1`, the RP-LC retention time was 707 s.
For `CC(NC(=O)c1cccs1)C(=O)Nc1nc2ccccc2[nH]1` (centres undefined), the RP-LC retention time was 612 s.
In the case of `COc1ccc(CNC(=O)CN2CCc3[nH]c4c(C)c(Cl)ccc4c(=O)c3C2)cc1`, the RP-LC retention time is reported as 638 s.
`O=c1n(Cc2ccccc2Cl)nc2c(S(=O)(=O)N3CCOCC3)cccn12` showed an RP-LC retention time of 774 s.
`COc1cc2c(cc1OC)C(C(=O)NCC1COc3ccccc3O1)C(c1cccs1)N(C)C2=O` (centres undefined) showed an RP-LC retention time of 842 s.
Work on `CCN(CC)C(=O)c1ccc(-c2nc3cc(NS(=O)(=O)c4ccc(F)c(C)c4)ccc3n2C)cc1` yielded an RP-LC retention time of 722 s.
`Cc1nn(C(C)C)c(C)c1S(=O)(=O)N1CCN(C(=O)C(C)Oc2ccccc2)CC1` (centres undefined) gave an RP-LC retention time of 665 s.
`COc1ccc(OC)c(NC(=O)C2CC(=O)N(CCc3c[nH]c4ccc(F)cc34)C2)c1` (centres undefined) showed an RP-LC retention time of 794 s.
For `CC1CCN(Cc2csc(N3CCN(C(=O)CCCc4ccccc4)CC3)n2)CC1`, the RP-LC retention time was 715 s.
`CCNC(=O)c1cc2cc(Cl)ccc2[nH]1` showed an RP-LC retention time of 806 s.
Work on `CCN(CC)c1nc(C(=O)N2CCN(C3CCN(C)CC3)CC2)nc2nc(C)cc(C)c12` yielded an RP-LC retention time of 540 s.
In the case of `Cc1c(-c2ccnc(N3CCN(C)CC3)n2)cnc2nc(-c3ccncc3)nn12`, the RP-LC retention time is reported as 552 s.
With `CCC(C)NC(=O)N1CC(Oc2ccc(-c3nc(-c4ccccc4)no3)cc2)C1` (centres undefined) the RP-LC retention time was 712 s.
Compound `Cc1nnc(C2CC3(CCN(CCCO)CC3)CN2CCc2ccccc2)o1` (centres undefined) has an RP-LC retention time of 572 s.
`O=C(C1CCN(S(=O)(=O)c2ccc(-c3noc(/C=C/c4cccs4)n3)cc2)CC1)N1CCCC1` showed an RP-LC retention time of 1050 s.
Work on `CCOC(=O)N1CCN(C(=O)C2CCC(CNS(=O)(=O)CC)CC2)CC1` (centres undefined) yielded an RP-LC retention time of 631 s.
Compound `CC(C)CCNC(=O)N1CCN(c2ncccc2-c2nnc(C3CC3)o2)CC1` has an RP-LC retention time of 765 s.
